# Values of other authors in patent US20200236925A1, “METHODS AND FORMULATIONS FOR PREVENTING DOWNWARD MIGRATION OF AGRICULTURAL MATERIALS” (BAYER CROPSCIENCE LP, priority 2019, published 2020).
# How the values were obtained:
# hybrid bermudagrass [1] = details: application rate increased from 35 to 53 g ha-1; SOC ≤0.3% w w-1
# hybrid bermudagrass [2] = details: 35 or 52 g ha-1, fall or spring treatments
smiles,measurement,setting,value
"Cc1ccc2c(c1)[C@H](Nc1nc(N)nc(C(C)F)n1)[C@@H](C)C2 (mixture of isomers) [indaziflam, N2-[(1R,2S)-2,3-dihydro-2,6-dimethyl-1H-inden-1-yl]-6-[(1RS)-1-fluoroethyl]-1,3,5-triazine-2,4-diamine]",increase of hybrid bermudagrass injury,hybrid bermudagrass [1],> 10 fold
same,solubility in distilled water,distilled water,2.8 µg/mL
same,field-T1/2,field persistence,> 150 days
same,aqueous solubility (Ks),pH 7,2.4 µg/mL
same,hybrid bermudagrass root strength vs nontreated,hybrid bermudagrass [2],no differences in hybrid bermudagrass root strength
